Assays:
5'-nucleotidase [1] = target: 5'-nucleotidase (Homo sapiens, UniProt P21589); assay: Ecto-5'-Nucleotidase Inhibition Assay; conditions: pH 7.4; 37 °C
Method: (§1) Then the mixture was placed in water bath at 99 °C for 20 min to stop the enzymatic reaction by thermal denaturation of protein. The aliquots of 50 μL of this reaction mixture were transferred into CE mini vials and injected hydrodynamically into the capillary under pressure of 0.5 psi for 5 s, followed by the application of 15 kV voltage for separation of substrate and product peaks.

5'-nucleotidase [2] = target: T1, 5'-nucleotidase (Rattus norvegicus, UniProt P21588); assay: Ecto-5'-Nucleotidase Inhibition Assay; conditions: pH 7.4; 37 °C
T1 sequence (P21588 whole entry): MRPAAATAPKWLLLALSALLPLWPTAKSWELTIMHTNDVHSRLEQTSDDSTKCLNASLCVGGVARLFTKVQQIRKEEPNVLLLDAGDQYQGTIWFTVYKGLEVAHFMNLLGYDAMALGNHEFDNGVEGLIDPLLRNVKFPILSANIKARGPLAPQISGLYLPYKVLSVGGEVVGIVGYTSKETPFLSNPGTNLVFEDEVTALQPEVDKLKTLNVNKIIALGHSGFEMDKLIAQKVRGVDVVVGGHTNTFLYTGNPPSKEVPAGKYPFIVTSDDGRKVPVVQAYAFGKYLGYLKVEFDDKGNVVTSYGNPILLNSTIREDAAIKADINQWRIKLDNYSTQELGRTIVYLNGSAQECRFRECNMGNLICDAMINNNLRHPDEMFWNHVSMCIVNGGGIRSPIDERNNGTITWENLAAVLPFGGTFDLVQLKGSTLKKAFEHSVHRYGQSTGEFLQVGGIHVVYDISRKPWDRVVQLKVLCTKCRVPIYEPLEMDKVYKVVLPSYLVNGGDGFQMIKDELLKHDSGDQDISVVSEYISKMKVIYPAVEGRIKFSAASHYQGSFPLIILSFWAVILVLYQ
Method: as §1

[3] = target: Intestinal-type alkaline phosphatase (Bos taurus, UniProt P19111); assay: Alkaline Phosphatase Assay; conditions: pH 9.8; 37 °C
Method: Alkaline phosphatase assay was optimized and performed in the same way as previously reported method with slight modifications [Sergienko et al., Nat. Protoc., 5:1431-1439]. All compounds were analyzed at a final concentration of 200 μM (1% DMSO) by using assay buffer with composition of […] diethanolamine (DEA) (pH 9.8), 0.05 mM ZnCl2 and 2.5 mM MgCl2. The total reaction volume was kept 50 μL containing 10 μL of tested compound, 20 μL of b-TNAP (1:800 (0.8 units/mL) diluted enzyme in assay buffer) or c-IAP (1:800 (1 units/mL) diluted enzyme in assay buffer). After incubation for 3-5 min at 37 °C., the luminescence was measured as a pre-read using microplate reader (BioTek FLx800, Instruments, Inc. USA). Then, 20 μL of substrate (CDPstar®) (final concentration of 110 μM) was added to the reaction mixture to initiate the enzymatic reaction. The change in the luminescence was recorded after 15 min. at 37 °C. The activity of each compound was measured in comparison with control (without any inhibitor). Levamisole (2 mM per well) and L-phenylalanine (4 mM per well) were used as standards (positive control) against b-TNAP) and c-IAP), respectively.

[4] = Alkaline Phosphatase Assay; conditions: pH 9.8; 37 °C

Chain of 5'-nucleotidase (Homo sapiens, UniProt P21589) (P21589 whole entry): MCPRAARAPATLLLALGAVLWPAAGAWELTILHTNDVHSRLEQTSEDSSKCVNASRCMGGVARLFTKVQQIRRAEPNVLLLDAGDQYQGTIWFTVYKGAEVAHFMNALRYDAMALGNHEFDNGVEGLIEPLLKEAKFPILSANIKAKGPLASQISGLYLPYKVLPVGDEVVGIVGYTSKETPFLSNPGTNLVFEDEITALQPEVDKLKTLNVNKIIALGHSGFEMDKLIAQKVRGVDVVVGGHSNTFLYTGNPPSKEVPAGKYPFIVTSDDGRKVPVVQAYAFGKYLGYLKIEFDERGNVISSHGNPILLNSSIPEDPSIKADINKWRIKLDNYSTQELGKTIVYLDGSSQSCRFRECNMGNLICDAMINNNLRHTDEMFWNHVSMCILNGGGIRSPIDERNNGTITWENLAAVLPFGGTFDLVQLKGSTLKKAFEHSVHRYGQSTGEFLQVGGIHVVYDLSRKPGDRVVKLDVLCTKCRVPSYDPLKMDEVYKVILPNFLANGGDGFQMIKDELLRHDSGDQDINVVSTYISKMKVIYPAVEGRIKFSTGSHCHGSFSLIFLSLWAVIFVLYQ
Chain of Intestinal-type alkaline phosphatase (P19111 whole entry): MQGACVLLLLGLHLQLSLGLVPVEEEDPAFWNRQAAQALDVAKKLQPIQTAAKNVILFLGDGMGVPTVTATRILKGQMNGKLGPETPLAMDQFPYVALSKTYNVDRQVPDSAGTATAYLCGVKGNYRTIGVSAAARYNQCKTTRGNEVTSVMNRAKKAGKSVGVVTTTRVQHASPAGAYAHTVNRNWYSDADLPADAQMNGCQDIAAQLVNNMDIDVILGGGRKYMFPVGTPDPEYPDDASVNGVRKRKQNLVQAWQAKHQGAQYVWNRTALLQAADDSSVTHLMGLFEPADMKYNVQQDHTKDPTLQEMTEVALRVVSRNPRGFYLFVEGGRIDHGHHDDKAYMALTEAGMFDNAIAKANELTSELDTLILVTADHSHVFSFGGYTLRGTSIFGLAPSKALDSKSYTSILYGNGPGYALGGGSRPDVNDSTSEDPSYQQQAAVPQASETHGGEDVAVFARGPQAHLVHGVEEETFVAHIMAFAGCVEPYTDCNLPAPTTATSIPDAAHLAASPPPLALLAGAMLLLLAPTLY

Compound	IC50 [3] [nM]	IC50 [4] [nM]	IC50 (5'-nucleotidase [1]) [nM]	IC50 (5'-nucleotidase [2]) [nM]
NS(=O)(=O)c1ccc(N/N=C(/C(=O)/C=C/c2ccccc2Br)N2CCOCC2)cc1 [(Z)-4-(2-((E)-4-(2-bromophenyl)-1-morpholino-2-oxobut-3-enylidene)hydrazinyl) benzenesulfonamide (4i)]	1210	–	2920	22400
NS(=O)(=O)c1ccc(N/N=C(/C(=O)/C=C/c2ccccc2F)N2CCOCC2)cc1 [(Z)-4-(2-((E)-4-(2-fluorophenyl)-1-morpholino-2-oxobut-3-enylidene)hydrazinyl) benzene-sulfonamide (4g)]	440	–	–	–
NS(=O)(=O)c1ccc(N/N=C(/C(=O)/C=C/c2cccc([N+](=O)[O-])c2)N2CCOCC2)cc1 [(Z)-4-(2-((E)-1-morpholino-4-(3-Nitrophenyl)-2-oxobut-3-enylidene)hydrazinyl) benzenesulfonamide (4j)]	740	–	–	–
COc1ccc(/C=C/C(=O)/C(=N/Nc2ccc(S(N)(=O)=O)cc2)N2CCOCC2)cc1OC [(Z)-4-(2-((E)-4-(3,4-dimethoxyphenyl)-1-morpholino-2-oxobut-3-enylidene) hydrazinyl) benzenesulfonamide (4e)]	350	–	–	7410
NS(=O)(=O)c1ccc(N/N=C(/C(=O)/C=C/c2ccccc2Cl)N2CCOCC2)cc1 [(Z)-4-(2-((E)-4-(2-chlorophenyl)-1-morpholino-2-oxobut-3-enylidene)hydrazinyl) benzenesulfonamide (4a)]	120	–	11600	6430
NS(=O)(=O)c1ccc(N/N=C(/C(=O)/C=C/c2ccc(Cl)cc2Cl)N2CCOCC2)cc1 [(Z)-4-(2-((E)-4-(2,4-dichlorophenyl)-1-morpholino-2-oxobut-3-enylidene)hydrazinyl) benzenesulfonamide (4b)]	680	–	3320	2850
COc1cc(/C=C/C(=O)/C(=N/Nc2ccc(S(N)(=O)=O)cc2)N2CCOCC2)cc(OC)c1OC [(Z)-4-(2-((E)-1-morpholino-2-oxo-4-(3,4,5-Trimethoxyphenyl)but-3-enylidene) hydrazinyl)benzenesulfonamide (4f)]	2570	–	1750	680

The next lines start with results.

IC50 [3] [nM]	IC50 [4] [nM]	Compound	IC50 (5'-nucleotidase [1]) [nM]	IC50 (5'-nucleotidase [2]) [nM]
730	–	NS(=O)(=O)c1ccc(N/N=C(/C(=O)/C=C/c2cccc(F)c2)N2CCOCC2)cc1 [(Z)-4-(2-((E)-4-(3-fluorophenyl)-1-morpholino-2-oxobut-3-enylidene)hydrazinyl) benzenesulfonamide (4h)]	–	–
990	–	COc1cccc(/C=C/C(=O)/C(=N/Nc2ccc(S(N)(=O)=O)cc2)N2CCOCC2)c1 [(Z)-4-(2-((E)-4-(3-methoxyphenyl)-1-morpholino-2-oxobut-3-enylidene)hydrazinyl) benzenesulfonamide (4c)]	–	–
1710	330	COc1ccc(/C=C/C(=O)/C(=N/Nc2ccc(S(N)(=O)=O)cc2)N2CCOCC2)cc1 [(Z)-4-(2-((E)-4-(4-methoxyphenyl)-1-morpholino-2-oxobut-3-enylidene)hydrazinyl) benzenesulfonamide (4d)]	–	–
